pIC50: −log10 of the molar value. Values belong to the molecule of their own block, whether it stands above or below them.
Columns and labels:
BRD4-1 = BRD4-1 (Homo sapiens, UniProt O60885); assay: biochemical; format: binding; settings: IC50 (μM) BRD4-1, Alpha Screen, KAc-histone H4 peptide (K5/8/12/16Ac)
BRDT-1 = BRDT-1 (Homo sapiens, UniProt Q58F21); assay: biochemical; format: binding; settings: IC50 (μM) BRDT-1, Alpha Screen, KAc-histone H4 peptide (K5/8/12/16Ac)
BET bromodomains = settings: cited from earlier work
VEGFR-1 = settings: read-out: IC50 VEGFR-1; cited from earlier work
VEGFR-2 = settings: read-out: IC50 VEGFR-2; cited from earlier work

IC50 (BRD4-1): > 20 µM
IC50 (BRDT-1): > 20 µM
Structure (SMILES): COc1cc(Nc2ncc(F)c(Nc3ccc4c(n3)N(COP(=O)(O)O)C(=O)C(C)(C)O4)n2)cc(OC)c1OC [Fostamatinib]

IC50 (BRDT-1): 7.6 µM
Structure (SMILES): COc1cc(Nc2nccc(Nc3ccc4c(C)n[nH]c4c3)n2)cc(OC)c1OC [GW612286X]

Structure (SMILES): O=c1cc(N2CCOCC2)oc2c(-c3ccccc3)cccc12 [LY294002]
inhibition of BET bromodomains (BET bromodomains): modest inhibitor of BET bromodomains

Structure (SMILES): Cc1ccc(Nc2nccc(N(C)c3ccc4c(C)n(C)nc4c3)n2)cc1S(N)(=O)=O [Pazopanib]
pIC50 (VEGFR-1): 8.00
